We go through 1 compound from patent US20130317064A1 (priority 2011, published 2013).

Structures are written as SMILES.

Turning to `Cc1cc(C(F)(F)F)nn1CC(=O)N1CCC(c2nc(NC(=O)C3=C(O)CCCC3=O)cs2)CC1` [I.a.001, 2-hydroxy-6-oxo-cyclohex-1-enecarboxylic acid (2-{1-[2-(5-methyl-3-trifluoromethyl-pyrazol-1-yl)-acetyl]-piperidin-4-yl}-thiazol-4-yl)-amide], the melting point fell in the range of 102 to 105 °C.
